Data published in patent US20230263822A1, “MODULATION OF FACTOR 11 EXPRESSION” (Ionis Pharmaceuticals, Inc., priority 2008, published 2023).
Strand notation (5' to 3'): a small letter for the sugar, then the base; units joined by * are phosphorothioate-linked, units joined directly phosphodiester-linked; [ ] holds rarer units or linkages, { } end groups; capitals alone tell only the bases. e = 2'-O-(2-methoxyethyl) (MOE); [5mC] = 5-methylcytosine; d = 2'-deoxy (DNA)

How the values were obtained:
Assay type in all cases: in vivo
[1] = tested on: IL-1β, IL-6, IFN-γ, TNF-α, IL-8, MIP-1α, MCP-1, MIP-1β, RANTES; test: Cytokine and chemokine assays in cynomolgus monkeys (Example 46)
Experimental: (§1) Groups, each consisting of two male and two female monkeys, were injected subcutaneously with 25 mg/kg of ISIS 416850, ISIS 449709, ISIS 445522, ISIS 449710, ISIS 449707, ISIS 449711, ISIS 449708, 416858, and ISIS 445531. Antisense oligonucleotide was administered to the monkeys at 25 mg/kg three times per week for week 1 and 25 mg/kg twice per week for weeks 2 to 8. A control group, consisting of two male and two female monkeys was injected subcutaneously with PBS according to the same dosing regimen. Body weights were taken 14 days and 7 days before the start of treatment and were then measured weekly throughout the treatment period. Blood samples were collected 14 days and 5 days before the start of treatment and subsequently several times during the dosing regimen for PT and aPTT measurements, and measurement of various hematologic factors. On day 55, the monkeys were euthanized by exsanguination while under deep anesthesia, and organs harvested for further analysis.
Blood samples obtained from all monkey groups were sent to Pierce Biotechnology (Woburn, Mass.) for measurements of chemokine and cytokine levels. Levels of IL-1β, IL-6, IFN-γ, and TNF-α were measured using the respective primate antibodies and levels of IL-8, MIP-1α, MCP-1, MIP-1β and RANTES were measured using the respective cross-reacting human antibodies. Measurements were taken 14 days before the start of treatment and on day 55, when the monkeys were euthanized.

[2] = Body and organ weights of cynomolgus monkeys (Example 46); design: Liver weight / Spleen weight / Kidney weight: unit not given here; settings: for Kidney weight / Liver weight / Spleen weight: day 55, after euthanasia
Experimental: as §1
Organ weights were taken after the animals were euthanized on day 55, and livers, kidneys and spleens were harvested.

[3] = Kidney function, BUN, urine protein to creatinine ratio in cynomolgus monkeys (Example 46); settings: for Urine protein/creatinine ratio: day 49
Experimental: as §1
To evaluate the impact of ISIS oligonucleotides on kidney function, urine samples were collected on different days. […] The ratio of urine protein to creatinine in urine samples after antisense oligonucleotide treatment was also calculated for day 49 and results are presented in Table 156. As observed in Tables 155 and 156, there were no significant increases in any of the kidney metabolic markers after antisense oligonucleotide treatment.

[4] = day-14 (before start of treatment)
[5] = Day −5 (before start of treatment)
[6] = Day −14 (before start of treatment)

In the case of “ISIS 416850: MOE gapmer, nucleobases 1275 to 1318 of SEQ ID NO: 1 (Table 8) (antisense TGCACAGTTTCTGGCAGGCC; MOE gapmer, wing and gap sizes not given here)”, the IFN-γ level ([1]; day 55) is reported as 19 pg/mL, the IL-1ß level ([1]; day 55) is reported as 106 pg/mL and the IL-6 level ([1]; day 55) is reported as 1 pg/mL. It also gave an IL-8 level ([1]; day 55) of 620 pg/mL, an MCP-1 level ([1]; day 55) of 887 pg/mL and an MIP-1ß level ([1]; day 55) of 50 pg/mL. The MIP-1α level ([1]; day 55) was 17 pg/mL, the RANTES level ([1]; day 55) was 27503 pg/mL and the TNF-α level ([1]; day 55) was 16 pg/mL. For the same substance, the IFN-γ level [1, 4] was 115 pg/mL, the IL-1ß level [1, 4] was 215 pg/mL and the IL-6 level [1, 4] was 1 pg/mL. It also gave an IL-8 level [1, 4] of 45 pg/mL, an MCP-1 level [1, 4] of 434 pg/mL and an MIP-1ß level [1, 4] of 31 pg/mL. The MIP-1α level [1, 4] was 14 pg/mL, the RANTES level [1, 4] was 4560 pg/mL and the TNF-α level [1, 4] was 4 pg/mL. For the same substance, the body weight ([2]; day 1) was 2083 g, the body weight ([2]; day 8) was 2072 g and the body weight ([2]; day 15) was 2147 g. The body weight ([2]; day 22) was 2139 g, the body weight ([2]; day 29) was 2159 g and the body weight ([2]; day 36) was 2136 g. The body weight ([2]; day 43) was 2186 g, the body weight ([2]; day 50) was 2143 g and the Kidney weight [2] was 0.51. The Liver weight [2] was 2.5, the Spleen weight [2] was 0.17 and the body weight ([2]; day −7) was 2074 g. It also gave a body weight ([2]; day −14) of 2061 g, a BUN levels ([3]; Day 31) of 21 mg/dL and a BUN levels ([3]; Day 55) of 26 mg/dL. For the same substance, the BUN levels [3, 5] was 23 mg/dL, the BUN levels [3, 6] was 24 mg/dL and the Urine protein/creatinine ratio [3] was 0.08.
“ISIS 416858: MOE gapmer, nucleobases 1275 to 1318 of SEQ ID NO: 1 (Table 8) (antisense ACGGCATTGGTGCACAGTTT; MOE gapmer, wing and gap sizes not given here)” showed an IFN-γ level ([1]; day 55) of 9 pg/mL, an IL-1ß level ([1]; day 55) of 28 pg/mL and an IL-6 level ([1]; day 55) of 1 pg/mL. It also gave an IL-8 level ([1]; day 55) of 167 pg/mL, an MCP-1 level ([1]; day 55) of 512 pg/mL and an MIP-1ß level ([1]; day 55) of 47 pg/mL. For the same substance, the MIP-1α level ([1]; day 55) was 11 pg/mL, the RANTES level ([1]; day 55) was 5925 pg/mL and the TNF-α level ([1]; day 55) was 15 pg/mL. It also gave an IFN-γ level [1, 4] of 32 pg/mL, an IL-1ß level [1, 4] of 103 pg/mL and an IL-6 level [1, 4] of 0 pg/mL. It also gave an IL-8 level [1, 4] of 224 pg/mL, an MCP-1 level [1, 4] of 328 pg/mL and an MIP-1ß level [1, 4] of 37 pg/mL. It also gave an MIP-1α level [1, 4] of 11 pg/mL, an RANTES level [1, 4] of 6521 pg/mL and a TNF-α level [1, 4] of 4 pg/mL. The body weight ([2]; day 1) was 2115 g, the body weight ([2]; day 8) was 2149 g and the body weight ([2]; day 15) was 2162 g. It also gave a body weight ([2]; day 22) of 2188 g, a body weight ([2]; day 29) of 2196 g and a body weight ([2]; day 36) of 2210 g. It also gave a body weight ([2]; day 43) of 2238 g, a body weight ([2]; day 50) of 2225 g and a Kidney weight [2] of 0.47. The Liver weight [2] was 2.6, the Spleen weight [2] was 0.24 and the body weight ([2]; day −7) was 2092 g. For the same substance, the body weight ([2]; day −14) was 2073 g, the BUN levels ([3]; Day 31) was 23 mg/dL and the BUN levels ([3]; Day 55) was 24 mg/dL. The BUN levels [3, 5] was 24 mg/dL, the BUN levels [3, 6] was 25 mg/dL and the Urine protein/creatinine ratio [3] was 0.05.
“ISIS 445522: 5-8-5 or 6-8-6 MOE microwalk gapmer (Table 44) (antisense eG*e[5mC]*eA*e[5mC]*eA*dG*dT*dT*dT*d[5mC]*dT*dG*dG*e[5mC]*eA*eG*eG*e[5mC])” showed an IFN-γ level ([1]; day 55) of 83 pg/mL, an IL-1ß level ([1]; day 55) of 341 pg/mL and an IL-6 level ([1]; day 55) of 2 pg/mL. For the same substance, the IL-8 level ([1]; day 55) was 100 pg/mL, the MCP-1 level ([1]; day 55) was 592 pg/mL and the MIP-1ß level ([1]; day 55) was 63 pg/mL. The MIP-1α level ([1]; day 55) was 22 pg/mL, the RANTES level ([1]; day 55) was 16154 pg/mL and the TNF-α level ([1]; day 55) was 18 pg/mL. The IFN-γ level [1, 4] was 172 pg/mL, the IL-1ß level [1, 4] was 188 pg/mL and the IL-6 level [1, 4] was 5 pg/mL. The IL-8 level [1, 4] was 32 pg/mL, the MCP-1 level [1, 4] was 297 pg/mL and the MIP-1ß level [1, 4] was 27 pg/mL. The MIP-1α level [1, 4] was 22 pg/mL, the RANTES level [1, 4] was 3477 pg/mL and the TNF-α level [1, 4] was 16 pg/mL. The body weight ([2]; day 1) was 2047 g, the body weight ([2]; day 8) was 2094 g and the body weight ([2]; day 15) was 2092 g. The body weight ([2]; day 22) was 2114 g, the body weight ([2]; day 29) was 2125 g and the body weight ([2]; day 36) was 2121 g. The body weight ([2]; day 43) was 2142 g, the body weight ([2]; day 50) was 2127 g and the Kidney weight [2] was 0.55. For the same substance, the Liver weight [2] was 2.6, the Spleen weight [2] was 0.23 and the body weight ([2]; day −7) was 2042 g. For the same substance, the body weight ([2]; day −14) was 2050 g, the BUN levels ([3]; Day 31) was 22 mg/dL and the BUN levels ([3]; Day 55) was 22 mg/dL. For the same substance, the BUN levels [3, 5] was 22 mg/dL, the BUN levels [3, 6] was 23 mg/dL and the Urine protein/creatinine ratio [3] was 0.01.
Work on “ISIS 445531: 5-8-5 or 6-8-6 MOE microwalk gapmer (Table 44) (antisense eG*eG*e[5mC]*eA*eT*dT*dG*dG*dT*dG*d[5mC]*dA*d[5mC]*eA*eG*eT*eT*eT)” yielded an IFN-γ level ([1]; day 55) of 15 pg/mL, an IL-1ß level ([1]; day 55) of 155 pg/mL and an IL-6 level ([1]; day 55) of 1 pg/mL. For the same substance, the IL-8 level ([1]; day 55) was 293 pg/mL, the MCP-1 level ([1]; day 55) was 339 pg/mL and the MIP-1ß level ([1]; day 55) was 84 pg/mL. It also gave an MIP-1α level ([1]; day 55) of 12 pg/mL, an RANTES level ([1]; day 55) of 5935 pg/mL and a TNF-α level ([1]; day 55) of 16 pg/mL. It also gave an IFN-γ level [1, 4] of 68 pg/mL, an IL-1ß level [1, 4] of 101 pg/mL and an IL-6 level [1, 4] of 2 pg/mL. For the same substance, the IL-8 level [1, 4] was 83 pg/mL, the MCP-1 level [1, 4] was 317 pg/mL and the MIP-1ß level [1, 4] was 22 pg/mL. It also gave an MIP-1α level [1, 4] of 25 pg/mL, an RANTES level [1, 4] of 7825 pg/mL and a TNF-α level [1, 4] of 9 pg/mL. For the same substance, the body weight ([2]; day 1) was 2125 g, the body weight ([2]; day 8) was 2119 g and the body weight ([2]; day 15) was 2109 g. For the same substance, the body weight ([2]; day 22) was 2143 g, the body weight ([2]; day 29) was 2148 g and the body weight ([2]; day 36) was 2191 g. For the same substance, the body weight ([2]; day 43) was 2233 g, the body weight ([2]; day 50) was 2197 g and the Kidney weight [2] was 0.49. It also gave a Liver weight [2] of 2.8, a Spleen weight [2] of 0.24 and a body weight ([2]; day −7) of 2092 g. For the same substance, the body weight ([2]; day −14) was 2079 g, the BUN levels ([3]; Day 31) was 20 mg/dL and the BUN levels ([3]; Day 55) was 22 mg/dL. The BUN levels [3, 5] was 18 mg/dL, the BUN levels [3, 6] was 22 mg/dL and the Urine protein/creatinine ratio [3] was 0.08.
